From patent publication US11957687B2 (REGENERON PHARMACEUTICALS, INC., priority 2019, dated 2024)

What follows are molecules tested against HSD17B13 (Homo sapiens (Human), UniProt Q7Z5P4) (assay: HSD17B13 enzymatic inhibition assay (150 nM or 50 nM HSD17B13)). Details: 50 nM HSD17B13; read-out: Inhibition of 50 nM of HSD17B13 IC50.
Sequence of HSD17B13 (Q7Z5P4 other isoform, or with tags, fused parts or gaps): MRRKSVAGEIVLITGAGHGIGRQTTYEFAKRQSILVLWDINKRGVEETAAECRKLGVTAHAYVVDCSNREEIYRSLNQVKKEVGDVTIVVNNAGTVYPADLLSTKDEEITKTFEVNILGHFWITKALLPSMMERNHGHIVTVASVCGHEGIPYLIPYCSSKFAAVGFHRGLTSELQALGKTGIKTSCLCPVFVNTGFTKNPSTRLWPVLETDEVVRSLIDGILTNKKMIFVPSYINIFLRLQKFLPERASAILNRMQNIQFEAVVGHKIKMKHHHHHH
Type: biochemical
With O=C(NC(c1ccccc1)c1ccc2c(c1)CCOC2)c1ccc(C(F)(F)F)[nH]c1=O (stereo not drawn) [Compound 82, N-(isochroman-6-yl(phenyl)methyl)-2-oxo-6-(trifluoromethyl)-1,2-dihydropyridine-3-carboxamide] the IC50 was 840 nM.
Cc1ccc2c(c1)Sc1cc(C)ccc1C2NC(=O)c1cc(C)c(C(F)(F)F)[nH]c1=O [Compound 515, N-(3,6-dimethyl-9H-thioxanthen-9-yl)-5-methyl-2-oxo-6-(trifluoromethyl)-1,2-dihydropyridine-3-carboxamide] showed an IC50 of 30 nM.
COc1ccc2c(c1)Oc1cccc(OC)c1C2NC(=O)c1ccc(C(F)(F)F)[nH]c1=O (stereo not drawn) [Compound 57, N-(1,6-dimethoxy-9H-xanthen-9-yl)-2-oxo-6-(trifluoromethyl)-1,2-dihydropyridine-3-carboxamide] gave an IC50 of 460 nM.
Work on O=C(NC1c2ccc(OC(F)F)cc2-c2cc(OC(F)F)ccc21)c1ccc(C(F)(F)F)[nH]c1=O [Compound 47, N-(3,6-bis(difluoromethoxy)-9H-fluoren-9-yl)-2-oxo-6-(trifluoromethyl)-1,2-dihydropyridine-3-carboxamide] yielded an IC50 of 1830 nM.
In the case of O=C(NC1c2ccccc2Oc2ncccc21)c1ccc(C(F)(F)F)[nH]c1=O (stereo not drawn) [Compound 334, N-(5H-chromeno[2,3-b]pyridin-5-yl)-2-oxo-6-(trifluoromethyl)-1,2-dihydropyridine-3-carboxamide], the IC50 is reported as 2390 nM.
Work on Cc1ccc2c(c1)N(C)CCC2NC(=O)c1ccc(C(F)(F)F)[nH]c1=O (stereo not drawn) [Compound 338, N-(1,7-dimethyl-1,2,3,4-tetrahydroquinolin-4-yl)-2-oxo-6-(trifluoromethyl)-1,2-dihydropyridine-3-carboxamide] yielded an IC50 of 4260 nM.
Nc1ccc(C(NC(=O)c2ccc(C(F)(F)F)[nH]c2=O)c2ccccc2)cc1 (stereo not drawn) [Compound 6A, N-((4-aminophenyl)(phenyl)methyl)-2-oxo-6-(trifluoromethyl)-1,2-dihydropyridine-3-carboxamide] was tested, and the IC50 was 5150 nM.
Molecule Cc1ccc2c(c1)C(NC(=O)c1ccc(C(F)F)[nH]c1=O)c1ccccc1O2 (stereo not drawn) [Compound 276, 6-(difluoromethyl)-N-(2-methyl-9H-xanthen-9-yl)-2-oxo-1,2-dihydropyridine-3-carboxamide] has an IC50 of 2620 nM.
Cc1cccc(C(NC(=O)c2ccc(C(F)(F)F)[nH]c2=O)c2ccccc2S(C)(=O)=O)c1 (stereo not drawn) [Compound 452, N-((2-(methylsulfonyl)phenyl)(m-tolyl)methyl)-2-oxo-6-(trifluoromethyl)-1,2-dihydropyridine-3-carboxamide] gave an IC50 of 7030 nM.
CCCC1=C(NC(=O)c2ccc(C(F)(F)F)[nH]c2=O)c2ccc(C)cc2C1O (stereo not drawn) [Compound 342, N-(1-hydroxy-6-methyl-2-propyl-1H-inden-3-yl)-2-oxo-6-(trifluoromethyl)-1,2-dihydropyridine-3-carboxamide] gave an IC50 of 100 nM.
Cc1cccc(NC(=O)c2ccc(C(F)(F)F)[nH]c2=O)c1 [Compound 226, 2-oxo-N-(m-tolyl)-6-(trifluoromethyl)-1,2-dihydropyridine-3-carboxamide] showed an IC50 of 8050 nM.
COc1ccc2c(c1)Oc1cc(OC)ccc1C2NC(=O)c1cc(C)c(C(F)(F)F)[nH]c1=O [Compound 240, N-(3,6-dimethoxy-9H-xanthen-9-yl)-5-methyl-2-oxo-6-(trifluoromethyl)-1,2-dihydropyridine-3-carboxamide] was tested, and the IC50 was 110 nM.
Work on COc1ccc2c(c1)Sc1ccccc1C2NC(=O)c1ccc(C(F)(F)F)[nH]c1=O (stereo not drawn) [Compound 242, N-(3-methoxy-9H-thioxanthen-9-yl)-2-oxo-6-(trifluoromethyl)-1,2-dihydropyridine-3-carboxamide] yielded an IC50 of 70 nM.
In the case of Cc1ccc(C(NC(=O)c2cnc(C(F)(F)F)[nH]c2=O)c2ccc(C)cc2)cc1 [Compound 13A, N-(di-p-tolylmethyl)-6-oxo-2-(trifluoromethyl)-1,6-dihydropyrimidine-5-carboxamide], the IC50 is reported as 1310 nM.
Work on O=C(NC1c2ccccc2Sc2ccccc21)c1ccc(C(F)F)[nH]c1=O [Compound 277, 6-(difluoromethyl)-2-oxo-N-(9H-thioxanthen-9-yl)-1,2-dihydropyridine-3-carboxamide] yielded an IC50 of 2710 nM.
